Laboratory results from patent US10227281B2, “Preparation of 2,6- and 2,7-disubstituted anthraquinone derivates” (BASF SE, priority 2014, dated 2019).
Converted amounts (≈) assume the structure as drawn.

Legend:
[1] = Determination of the solubility of anthraquinone derivatives in xylene/diisobutylcarbinol; conditions: for Solubility in the solvent system used (in words): xylene/diisobutylcarbinol solvent system, comparison of the derivatives
Description: 0.06 ml of a mixture of xylene (50 volume-%) and diisobutylcarbinol (50 volume-%) were added to 1 g of the respective anthraquinone derivative at 22° C. every 60 seconds until the anthraquinone derivative was dissolved completely.

[2] = Solubility of the anthrahydroquinone from the amount of absorbed hydrogen until precipitation; assay type: physicochemical; conditions: hydroquinone form, equivolume mixture of xylene and diisobutylcarbinol, 30° C.
Description: 5 g of the anthraquinone derivative obtained from Example 4 were dissolved in an equivolume mixture of xylene and diisobutylcarbinol at 30° C. to obtain 100 ml of an anthraquinone solution. 2 g of a palladium catalyst on alumina was added to 50 ml of the anthraquinone solution and then the solution was made to absorb the theoretical amount of hydrogen at 30° C. The obtained solution has been left untouched for 15 h to thoroughly precipitate the excess of anthrahydroquinone. After the catalyst and the precipitate have been separated by filtration under a current of nitrogen, the resulting solution was stirred under air in order to oxidize the anthrahydroquinone back to the corresponding anthraquinone. The produced hydrogen peroxide was extracted with water. After the extraction of the hydrogen peroxide was completed, 25 mL of the working solution were further submitted to subsequent hydrogenation at 30° C. as described above until a state of saturation was reached.

[3] = mixture of xylene (50 volume-%) and diisobutylcarbinol (50 volume-%), 22° C., quinone form

2,6-bis(4-methylpent-3-enyl)anthracene-9,10-dione and 2,7-bis(4-methylpent-3-enyl)anthracene-9,10-dione [Example 1]
Solubility [1, 3]: 770 mM

2,6-diisohexylanthracene-9,10-dione and 2,7-diisohexylanthracene-9,10-dione [Example 4]
Solubility [1, 3]: 1610 mM
Solubility in the solvent system used (in words) [1]: highest solubility
Solubility of the anthrahydroquinone [2]: 1010 mM

CCc1ccc2c(c1)C(=O)c1ccccc1C2=O [2-ethylanthraquinone]
Solubility in the solvent system used (in words) [1]: only poorly soluble

CC(C)=CCc1ccc2c(c1)C(=O)c1ccccc1C2=O [Comparative Example 1, 2-(3-methylbut-2-en-1-yl)anthracene-9,10-dione]
Solubility ([1]; xylene/diisobutylcarbinol mixture (50:50 by volume)): 770 mM (≈ 213 mg/mL)

Cc1cc2c(cc1C)C(=O)c1cc(C)c(C)cc1C2=O [Comparative Example 3, 2,3,6,7-tetramethylanthracene-9,10-dione]
Solubility [1, 3]: Insoluble
Solubility in the solvent system used (in words) [1]: insoluble
